Assay in all cases: NCI tumour cell line growth inhibition, 48 h
In experiment [1] the test system is UACC-257.
For experiment [2], the system named is SR.
Experiment [3] has as its system U-251.
The subject of experiment [4] is HOP-92.
Experiment [5] concerns SK-MEL-2.
In experiment [6] the test system is Malme-3M.
Experiment [7] concerns HOP-62.
For experiment [8], the system named is CCRF-CEM.
Experiment [9] relates to OVCAR-8.
Experiment [10] deals with MOLT-4.
The subject of experiment [11] is M14.
In experiment [12] the test system is OVCAR-3.
Experiment [13] relates to HL-60.
In experiment [14] the test system is IGROV-1.
The test system of experiment [15] is SNB-19.
In experiment [16] the test system is EKVX.
Experiment [17] relates to RXF 393.
The test system of experiment [18] is SNB-75.
Experiment [19] has as its system NCI-H460.
Experiment [20] has as its system SK-MEL-28.

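Compound exposure: 48 hours, 5 concentrations, 96-well plates. GI50 is the concentration that inhibits growth by half.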 The source made the active and inactive calls. Cut-off read from the data, not from the text of the source: active = GI50 up to about 1.1 µM and inactive = higher.

These results are taken from ChEMBL document CHEMBL1201862, “PubChem BioAssay data set” (2004).

Regarding `CC(C)Cc1c(C#N)c(C#N)c(N)n1Cc1ccccc1`, the GI50 in experiment [1], in experiment [2], in [3], in experiment [4], in experiment [5] and in experiment [6] was > 100 µM (inactive) in each case. Further, the GI50 in experiment [7], in experiment [8], in experiment [9], in experiment [10], in [11] and in experiment [12] was > 100 µM (inactive) in each case. The GI50 in [13] was > 100 µM (inactive); in [14], > 100 µM (inactive); in [15] it was > 100 µM (inactive); in experiment [16], > 100 µM (inactive); in experiment [17] it was > 100 µM (inactive); in experiment [18], 40.8 µM (inactive).
As for `CC1=CC(=O)c2cccc(NC3=NCCO3)c21`, the GI50 in [2] is 38.2 µM (inactive); in experiment [3] it was 64 µM (inactive); in experiment [4], 36.1 µM (inactive); in experiment [5], 97.1 µM (inactive); in experiment [19], 31.3 µM (inactive); in experiment [6], 30.6 µM (inactive). The GI50 in [7] was > 100 µM (inactive); in experiment [8], 42 µM (inactive); in experiment [10], 32.7 µM (inactive); in experiment [11] it was 47.3 µM (inactive); in experiment [12], 25.4 µM (inactive); in [13] it was 19.7 µM (inactive). Besides, the GI50 in [14] is 36.1 µM (inactive); in experiment [15], > 100 µM (inactive); in [16], > 100 µM (inactive); in experiment [17] it was 48.9 µM (inactive); in experiment [18] it was 52.6 µM (inactive); in [20], 78.7 µM (inactive).
`C/C(CCn1[nH]c(=O)ccc1=O)=N\O`: the GI50 in experiment [1], in experiment [2], in experiment [4], in [5], in experiment [19] and in experiment [6] was > 100 µM (inactive) throughout. Also, the GI50 in experiment [7], in experiment [8], in experiment [9], in [10], in [11] and in experiment [12] was > 100 µM (inactive) throughout. Moreover, the GI50 in [13], in [14], in experiment [15], in [16], in experiment [17] and in experiment [18] was > 100 µM (inactive) in each case. Further, the GI50 in experiment [20] is > 100 µM (inactive).
For `COCC1C(=O)c2cc3c(cc2C12C=CC1(C=C2)OCCO1)OCO3` (stereo unspecified), the GI50 in experiment [1] was 17.9 µM (inactive); in experiment [2], 1.82 µM (inactive); in experiment [3] it was 3.67 µM (inactive); in experiment [4] it was 14.5 µM (inactive); in [5], 11.7 µM (inactive); in experiment [19], 13.8 µM (inactive). The GI50 was 13.8 µM (inactive) in experiment [6]; 21.6 µM (inactive) in [7]; 0.583 µM (active) in experiment [8]; 3.58 µM (inactive) in experiment [9]; 1.65 µM (inactive) in experiment [10]; 3.38 µM (inactive) in [11]. The GI50 is 13.7 µM (inactive) in experiment [12]; 2.09 µM (inactive) in experiment [13]; 15.4 µM (inactive) in experiment [14]; 16.6 µM (inactive) in experiment [16]; 8.85 µM (inactive) in [17]; 14.9 µM (inactive) in experiment [18]. In addition, the GI50 in experiment [20] was 14.5 µM (inactive).
`CC(=O)Oc1ccc(O)c(O)c1C/C=C(\C)CC/C=C(\C)CC/C=C(\C)CCC=C(C)C` [TETRAPRENYLPHENOLSUILLIN]: the GI50 is 0.65 µM (active) in experiment [1]; 0.0564 µM (active) in experiment [2]; 0.346 µM (active) in experiment [3]; 0.309 µM (active) in experiment [4]; 1.16 µM (inactive) in experiment [5]; 0.365 µM (active) in experiment [19]. Further, the GI50 in experiment [6] is 0.274 µM (active); in experiment [7] it was 1.24 µM (inactive); in experiment [9] it was 0.392 µM (active); in experiment [11] it was 1.51 µM (inactive); in experiment [13], 1.39 µM (inactive); in [15], 0.424 µM (active). Besides, the GI50 in experiment [16] is 1.55 µM (inactive); in experiment [17], 1.2 µM (inactive); in experiment [18] it was 0.439 µM (active); in experiment [20], 0.656 µM (active).
Regarding `CC[C@@]1(O)CC(OC2CC(N3CCOCC3)C(O)C(C)O2)c2c(O)c3c(c(O)c2[C@H]1O)C(=O)c1cccc(O)c1C3=O` (stereo partly specified), the GI50 in experiment [1] was 0.214 µM (active); in experiment [2], 0.0193 µM (active); in experiment [3], 0.08 µM (active); in [4] it was 0.0429 µM (active); in experiment [5], 0.312 µM (active); in experiment [19] it was 0.00686 µM (active). Besides, the GI50 is 0.0502 µM (active) in experiment [6]; 0.0679 µM (active) in experiment [7]; 0.0379 µM (active) in experiment [8]; 0.0904 µM (active) in experiment [9]; 0.356 µM (active) in [11]; 0.355 µM (active) in experiment [12]. Further, the GI50 in experiment [13] was 0.0311 µM (active); in experiment [14], 0.0959 µM (active); in [15], 0.127 µM (active); in experiment [16], 0.318 µM (active); in [17] it was 0.196 µM (active); in [18] it was 0.139 µM (active). For the same compound, the GI50 in [20] is 0.378 µM (active).
As for `S=C1NCCN1C(=S)Nc1ccccc1`, the GI50 in experiment [1] is 96.2 µM (inactive); in [2] it was 42.4 µM (inactive); in [3] it was > 100 µM (inactive); in [4] it was 66.8 µM (inactive); in experiment [5] it was > 100 µM (inactive); in experiment [19], 89.5 µM (inactive). The GI50 in experiment [6] was > 100 µM (inactive); in experiment [7], > 100 µM (inactive); in experiment [8], 62.2 µM (inactive); in experiment [9], > 100 µM (inactive); in [10] it was 34.8 µM (inactive); in experiment [11], 61.5 µM (inactive). Moreover, the GI50 in experiment [12] was 90.8 µM (inactive); in [13], > 100 µM (inactive); in [14], > 100 µM (inactive); in [16] it was 33.9 µM (inactive); in experiment [17], 10.5 µM (inactive); in [18], 32.4 µM (inactive). In addition, the GI50 in experiment [20] was 56.2 µM (inactive).
Take `CC(=O)OCC12C(=O)C[C@@H](C)C3(CC(c4ccoc4)OC3=O)C1CCC(OC(C)=O)C21CO1` (stereo partly specified): the GI50 in experiment [1], in experiment [2], in experiment [3], in experiment [4], in experiment [5] and in experiment [19] was > 100 µM (inactive) in each case. The GI50 in experiment [6], in [7], in experiment [9], in [10], in experiment [11] and in experiment [12] was > 100 µM (inactive) throughout. Besides, the GI50 in [13] is > 100 µM (inactive); in experiment [14], > 100 µM (inactive); in [15], > 100 µM (inactive); in experiment [17] it was 87.3 µM (inactive); in [18], > 100 µM (inactive); in experiment [20], > 100 µM (inactive).
As to `NC1=NS(=O)(=O)Nc2nc(-c3ccc([N+](=O)[O-])cc3)[nH]c21`, the GI50 in experiment [2], in experiment [3], in experiment [4], in experiment [5], in experiment [19] and in experiment [6] was > 100 µM (inactive) each time. Besides, the GI50 in [7], in [8], in experiment [9], in [10], in experiment [11] and in experiment [12] was > 100 µM (inactive) in each case. Also, the GI50 in experiment [13], in experiment [14], in experiment [15], in experiment [17], in [18] and in experiment [20] was > 100 µM (inactive) in each case.
For the compound `CN1CN(C2OC(CO)C(O)C2O)c2nc(N)[nH]c(=O)c21` (stereo unspecified), the GI50 in [1], in experiment [2], in experiment [3], in experiment [4], in [5] and in experiment [19] was > 100 µM (inactive) in each case. In addition, the GI50 in experiment [6], in experiment [7], in [9], in experiment [10], in [11] and in experiment [12] was > 100 µM (inactive) each time. The GI50 in [13], in [14], in experiment [15], in experiment [16], in experiment [17] and in [18] was > 100 µM (inactive) throughout.
As to `CC(=O)O[C@H]1C(=O)[C@]2(C)[C@@H](OC(=O)OCCC(O)CO)C[C@H]3OC[C@@]3(OC(C)=O)[C@H]2[C@H](OC(=O)c2ccccc2)[C@]2(O)C[C@H](OC(=O)[C@H](O)[C@@H](NC(=O)c3ccccc3)c3ccccc3)C(C)=C1C2(C)C` (stereo partly specified), the GI50 in experiment [1] was 0.037 µM (active); in experiment [2], < 0.01 µM (active); in [3], 0.0135 µM (active); in experiment [4] it was 8.63 µM (inactive); in [5], 0.0265 µM (active); in [19], < 0.0126 µM (active). In addition, the GI50 was < 0.01 µM (active) in experiment [6]; 0.0964 µM (active) in experiment [7]; < 0.01 µM (active) in [8]; 0.0463 µM (active) in experiment [9]; < 0.0106 µM (active) in experiment [10]; 0.0461 µM (active) in experiment [11]. Moreover, the GI50 in [12] was < 0.01 µM (active); in experiment [13], < 0.01 µM (active); in experiment [14] it was < 0.0142 µM (active); in experiment [15] it was 0.0445 µM (active); in experiment [16] it was 0.121 µM (active); in experiment [17], 0.213 µM (active). Also, the GI50 in experiment [18] was < 0.01 µM (active).
